# Test results taken from article PMC12553364 (PeerJ, 2025).
# Read-outs that look alike come from different tables or passages of the source.
# Legend:
# [1] = In vivo pharmacokinetic interaction study in Sprague-Dawley rats; details: for AUC(0-inf) / AUC(0-t) / Cmax / Tmax / half-life / CL/F: male, Sprague-Dawley, rat, plasma, po, 25 mg/kg, rat plasma, n = 5, mean ± S.D.; for CL/F: read-out: CLz/F (converted)
# Procedure: Protein precipitation was used to remove proteins from plasma and extract the test materials. To this end, 100 µL of plasma sample was combined with 10 µL of the IS working solution (400 ng/mL) and 300 µL of acetonitrile. The mixture was then centrifuged at 13,000 rpm for 10 min at 4 °C to ensure complete protein precipitation. After centrifugation, the supernatant was carefully collected and transferred into a sample vial. Finally, 2.0 µL of sample was injected for UPLC-MS/MS analysis.
# The study was approved by Institutional Animal Care and Use Committee of the First Affiliated Hospital of Wenzhou Medical University (Approval No. WYYY-IACUC-AEC-2024-079). The experimental animals were cared in accordance with the Guide for the Care and Use of Laboratory Animals issued by the National Research Council, complying with the ARRIVE guidelines. The 6–8 weeks old Sprague-Dawley rats were obtained from Vital River Laboratory Animal Technology Co., Ltd (China, Zhejiang). The rats were housed at 25 °C and given a 14-day acclimation period under experimental conditions to reduce potential variability.
# Due to the similarity between their hepatic enzyme system and humans, SD male rats are widely used in pharmacokinetics ([Riccardi et al., 2018]; [Martignoni, Groothuis & De Kanter, 2006]). A total of 10 SD male rats (200 ± 20 g) were randomly divided into two groups (n = 5): Group A (control group) and Group B (experimental group). The animals were fasted for 12 h prior to the experiment but had free access to water. […] And the concentration of tropifexor was determined to be 20 µg/kg based on body surface area conversion from human administered doses in prior literature ([Chen et al., 2022a]). Experimental group was received of tropifexor (20 µg/kg) via oral gavage, whereas control group was administered of an equivalent volume of corn oil. […] Blood samples were then collected at different time points at 0.5, 1, 1.5, 2, 4, 8, 12, 24, and 48 h after administration. Each blood sample (approximately 0.3 mL) was taken from the caudal veins, and was collected into 1.5 mL heparinized polyethylene tubes. After centrifuged at 13,000 rpm for 10 min, the supernatant was collected and stored at −80 °C. The plasma sample was treated according to 2.4 Pre-treatment of samples before UPLC-MS/MS analysis.
# Pharmacokinetic parameters were calculated using the Drug and Statistics (DAS) software (version 3.0 software, Mathematical Pharmacology Professional Committee of China, Shanghai, China) with non-compartment model analyses based on the input data of drug administration route, dosage, drug concentration, and time.
# [2] = Stability of analytes in rat plasma (UPLC-MS/MS method validation); format: in vitro ADME; details: n = 5
# Procedure: The sensitivity of the method was reflected by the lower limit of quantification (LLOQ), which was also the lowest quantitative point. The LLOQ and three QC samples were obtained by the same method. […] All chemicals and solutions were stored at −80 °C for further use. Protein precipitation was used to remove proteins from plasma and extract the test materials. […] The mixture was then centrifuged at 13,000 rpm for 10 min at 4 °C to ensure complete protein precipitation. After centrifugation, the supernatant was carefully collected and transferred into a sample vial. Finally, 2.0 µL of sample was injected for UPLC-MS/MS analysis. The calibration curve, selectivity, accuracy, precision, recovery, matrix effect, and stability of the method established in this study were validated according to the FDA Bioanalytical Method Validation Guidance and the guidelines from the National Medical Products Administration (NMPA). Detailed information regarding the evaluation could be found in the Results and Discussion sections.
# [3] = test system: rat liver microsomes (RLM); test: Enzyme kinetics of crizotinib in rat liver microsomes (Michaelis-Menten)
# Procedure: (§1) Before measurement, the mixture without NADPH was pre-incubated at 37 °C for 5 min. Then, one mM of NADPH was given to incubate the reaction in a water bath with shaking at a rate of 200 times/min. After 30 min, the reaction was terminated by cooling at −80 °C. Next, 300 µL acetonitrile and 10 µL of the IS working solution were added to the mixture. After shaking for 2 min, the supernatant was obtained by centrifugation at 13,000 rpm for 10 min and subjected to UPLC-MS/MS analysis.
# (§2) The Km, IC50, the Lineweaver-Burk plot and the mean plasma concentration–time curve were calculated and plotted using GraphPad Prism 9.0 software (GraphPad Software Inc., California, United States).
# RLM = test system: RLM; set-up: method as in Wang et al., 2024; details: read-out: Km of crizotinib, ref Wang et al., 2024; cited from earlier work
# [4] = set-up: method as in Xu et al., 2015; details: compared to a single oral dose of 150 mg crizotinib; ref Xu et al., 2015; cited from earlier work
# [5] = set-up: method as in Qiu et al., 2016; details: ref Qiu et al., 2016, cited from earlier work
# [6] = set-up: method as in Chen, Li & Chen, 2022; details: PBPK model, cancer patients; ref Chen, Li & Chen, 2022; cited from earlier work
# [7] = cited from earlier work
# [8] = set-up: method as in Ou, 2011; details: humans, single oral dose of 250 mg/d; ref Ou, 2011; cited from earlier work
# [9] = set-up: method as in Johnson et al., 2015; details: humans; ref Johnson et al., 2015; cited from earlier work
# in vitro [10] = details: rat, rat liver microsomes, pH 7.4
# Procedure: as §1, §2
# in vitro [11] = details: human, human liver microsomes, pH 7.4, Km of crizotinib, HLM 0.3 mg/mL, 1 mM NADPH, 0.1–50 µM crizotinib
# [12] = set-up: method as in Badman et al., 2020; details: healthy volunteers, single dose of up to three mg; ref Badman et al., 2020; cited from earlier work
# [13] = set-up: method as in Chen et al., 2022b; details: ref Chen et al., 2022b; cited from earlier work
# [14] = molecular target: crizotinib metabolism in human liver microsomes (HLM) (Homo sapiens, UniProt P08684); test: Inhibition of crizotinib metabolism by tropifexor in HLM (IC50, Lineweaver-Burk); format: in vitro ADME
# Sequence of crizotinib metabolism in human liver microsomes (HLM) (P08684 2-503): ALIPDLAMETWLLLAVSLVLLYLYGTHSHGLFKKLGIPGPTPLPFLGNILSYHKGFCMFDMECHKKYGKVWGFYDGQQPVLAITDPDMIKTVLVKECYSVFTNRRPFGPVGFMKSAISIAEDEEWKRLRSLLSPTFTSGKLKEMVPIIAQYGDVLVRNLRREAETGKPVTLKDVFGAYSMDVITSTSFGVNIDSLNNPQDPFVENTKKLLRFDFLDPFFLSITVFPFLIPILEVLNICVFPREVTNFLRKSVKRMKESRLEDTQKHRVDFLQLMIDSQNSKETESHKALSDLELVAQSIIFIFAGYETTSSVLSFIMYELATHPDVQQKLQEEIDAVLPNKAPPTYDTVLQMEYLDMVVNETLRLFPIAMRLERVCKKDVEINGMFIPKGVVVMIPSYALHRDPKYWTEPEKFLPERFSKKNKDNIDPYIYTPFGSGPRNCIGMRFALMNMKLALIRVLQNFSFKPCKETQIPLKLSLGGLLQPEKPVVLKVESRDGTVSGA
# [15] = test system: crizotinib metabolism in rat liver microsomes (RLM); test: Inhibition of crizotinib metabolism by tropifexor in RLM (IC50, Lineweaver-Burk); format: in vitro ADME
# [16] = group Crizotinib + Tropifexor: oral tropifexor 20 µg/kg 30 min before oral crizotinib 25 mg/kg
# [17] = group Crizotinib alone: single oral crizotinib 25 mg/kg
# [18] = rats, compared to control group
smiles,measurement,setting,value
C[C@@H](Oc1cc(-c2cnn(C3CCNC(=O)C3)c2)cnc1N)c1c(Cl)ccc(F)c1Cl (some centres unmarked) [2-Keto crizotinib],AUC(0-inf),[1]; [16],880 ± 269 ng·h/mL
same,AUC(0-t),[1]; [16],877 ± 268 ng·h/mL
same,Cmax,[1]; [16],74.3 ± 26.8 ng/mL
same,Tmax,[1]; [16],8.8 ± 1.79 h
same,half-life,[1]; [16],5.78 ± 1.79 h
same,CL/F,[1]; [16],507 mL/min/kg
same,AUC(0-inf),[1]; [17],605 ± 99.1 ng·h/mL
same,AUC(0-t),[1]; [17],603 ± 97.7 ng·h/mL
same,Cmax,[1]; [17],51 ± 14.4 ng/mL
same,Tmax,[1]; [17],8 h
same,half-life,[1]; [17],4.82 ± 1.18 h
same,CL/F,[1]; [17],704 mL/min/kg
same,decrease of CLz/F on co-administration of tropifexor,[1]; [18],27.9%
same,Stability RE,"[2]; 2 ng/mL, 10 °C (4 h)",2.2%
same,Stability RE,"[2]; 2 ng/mL, 21 days at −80 °C",14.7%
same,Stability RE,"[2]; 2 ng/mL, room temperature (3 h)",9.9%
same,Stability RE,"[2]; 2 ng/mL, three freeze-thaw (−80 °C/RT)",11.9%
same,Stability RE,"[2]; 40 ng/mL, 10 °C (4 h)",0.6%
same,Stability RE,"[2]; 40 ng/mL, 21 days at −80 °C",5.2%
same,Stability RE,"[2]; 40 ng/mL, room temperature (3 h)",2.0%
same,Stability RE,"[2]; 40 ng/mL, three freeze-thaw (−80 °C/RT)",−0.7%
same,Stability RE,"[2]; 80 ng/mL, 10 °C (4 h)",−0.6%
same,Stability RE,"[2]; 80 ng/mL, 21 days at −80 °C",5.9%
same,Stability RE,"[2]; 80 ng/mL, room temperature (3 h)",3.0%
same,Stability RE,"[2]; 80 ng/mL, three freeze-thaw (−80 °C/RT)",−0.7%
"C[C@@H](Oc1cc(-c2cnn(C3CCNCC3)c2)cnc1N)c1c(Cl)ccc(F)c1Cl [crizotinib, Crizotinib]",Vmax,[3],0.01457 pmol/min/µg protein
same,AUC(0-inf),[1]; [16],5670 ng·h/mL
same,AUC(0-t),[1]; [16],5560 ng·h/mL
same,Cmax,[1]; [16],326 ± 41 ng/mL
same,Tmax,[1]; [16],8.8 ± 1.79 h
same,half-life,[1]; [16],8.23 ± 1.65 h
same,CL/F,[1]; [16],76 mL/min/kg
same,AUC(0-inf),[1]; [17],4140 ng·h/mL
same,AUC(0-t),[1]; [17],4100 ng·h/mL
same,Cmax,[1]; [17],237 ± 45.3 ng/mL
same,Tmax,[1]; [17],8.8 ± 1.79 h
same,half-life,[1]; [17],6.83 ± 0.77 h
same,CL/F,[1]; [17],102 mL/min/kg
same,increase of AUC(0−t) on co-administration of tropifexor,[1]; [18],35.7%
same,increase of AUC(0−∞) on co-administration of tropifexor,[1]; [18],36.9%
same,Km,RLM,4.61 ± 0.28 µM
same,increase in AUC on co-administration with ketoconazole,[4],2.2 fold
same,Cmax,"[5]; SD rats, oral 24 mg/kg",309 ± 39.8 ng/mL
same,Tmax,"[5]; SD rats, oral 24 mg/kg",2.00 ± 0.00 h
same,oral absolute bioavailability,[5]; rats,68.6 ± 9.63%
same,predicted increase of AUC when co-administered with fluconazole,[6],58%
same,predicted increase of AUC when co-administered with itraconazole,[6],79%
same,predicted increase of AUC when co-administered with voriconazole,[6],84%
same,"likelihood of crizotinib-induced hepatotoxicity, patients with pre-existing liver conditions vs without liver disease","[7]; ref Jung et al., 2018",2.3 times
same,patients with elevated alanine aminotransferase (ALT) levels,"[7]; standard dose of crizotinib, ref Kazandjian et al., 2014",17%
same,patients with Grade 1 or 2 liver abnormalities,"[7]; typically within two months of treatment, reversible, ref Revol et al., 2020",30%
same,time at which Cmax was observed,[8],4 h
same,drug excreted unchanged in the feces,[9],approximately 63%
same,Km at 30 min,in vitro [10],1 µM
same,Stability RE,"[2]; 5 ng/mL, 10 °C (4 h)",0.5%
same,Stability RE,"[2]; 5 ng/mL, 21 days at −80 °C",−1.9%
same,Stability RE,"[2]; 5 ng/mL, room temperature (3 h)",−9.0%
same,Stability RE,"[2]; 5 ng/mL, three freeze-thaw (−80 °C/RT)",−8.3%
same,Stability RE,"[2]; 120 ng/mL, 10 °C (4 h)",5.9%
same,Stability RE,"[2]; 120 ng/mL, 21 days at −80 °C",4.7%
same,Stability RE,"[2]; 120 ng/mL, room temperature (3 h)",−6.9%
same,Stability RE,"[2]; 120 ng/mL, three freeze-thaw (−80 °C/RT)",−7.1%
same,Stability RE,"[2]; 240 ng/mL, 10 °C (4 h)",3.6%
same,Stability RE,"[2]; 240 ng/mL, 21 days at −80 °C",6.9%
same,Stability RE,"[2]; 240 ng/mL, room temperature (3 h)",−1.6%
same,Stability RE,"[2]; 240 ng/mL, three freeze-thaw (−80 °C/RT)",−7.4%
same,Km at 30 min,in vitro [11],15 µM
"O=C(O)c1cc(F)c2nc(N3[C@@H]4CC[C@H]3C[C@@H](OCc3c(-c5ccccc5OC(F)(F)F)noc3C3CC3)C4)sc2c1 [tropifexor, Tropifexor]",safety and tolerability,[12],safe and well-tolerated
same,decrease in Cmax on co-administration with a CYP3A4 inhibitor,[13],9%
same,decrease in Cmax on co-administration with the CYP3A4 inducer rifampin,[13],55%
same,inhibition mechanism on crizotinib metabolism,[14],competitive and non-competitive
same,α,[14],2.71
same,IC50 at 0.5 h,"[14]; human, liver microsomes, pH 7.4, IC50 of tropifexor on crizotinib metabolism, crizotinib at Km",4.3 µM
same,Ki at 0.5 h,"[14]; human, liver microsomes, pH 7.4, n = 3",4.93 µM
same,αKi,[14]; n = 3,13.38 µM
same,inhibition mechanism on crizotinib metabolism,[15],non-competitive and uncompetitive
same,α,[15],0.66
same,Ki,[15]; n = 3,5.6 µM
same,αKi,[15]; n = 3,3.72 µM
same,IC50,"[15]; read-out: IC50 of tropifexor on crizotinib metabolism, crizotinib at Km",4.43 µM
